Reference: ChEMBL document CHEMBL4706632, “Development of Potential Antitumor Agents from the Scaffolds of Plant-Derived Terpenoid Lactones” (J Med Chem, 2020)

Tests used:
PANC-1 [1] = test: Cytotoxicity against human Panc-1 cells incubated for 72 hrs by sulphorhodamine B assay; assay type: functional, cell-based; details: PANC-1, 72 h
SW1990 = test: Antiproliferative activity against human SW1990 incubated for 72 hrs by sulphorhodamine B assay; assay type: functional, cell-based; details: SW1990, 72 h
MCF7 [2] = test: Cytotoxicity against human MCF-7 cells incubated for 72 hrs by MTT assay; assay type: functional, cell-based; details: MCF7, 72 h
MDA-MB-231 [3] = test: Cytotoxicity against human MDA-MB-231 cells incubated for 72 hrs by MTT assay; assay type: functional, cell-based; details: MDA-MB-231, 72 h
HCT-116 [4] = test: Antiproliferative activity against human HCT-116 cells incubated for 72 hrs by WST-1 assay; assay type: functional, cell-based; details: HCT-116, 72 h
MCF7 [5] = test: Antiproliferative activity against human MCF7 cells incubated for 48 hrs by [3H]-thymidine incorporation assay; assay type: functional, cell-based
MDA-MB-435 = test: Antiproliferative activity against human MDA-MB-435 cells incubated for 48 hrs by [3H]-thymidine incorporation assay; assay type: functional, cell-based
A-431 = test: Antiproliferative activity against human A-431 cells incubated for 72 hrs by Sulforhodamine B assay; assay type: functional, cell-based; details: A-431, 72 h
A549 = test: Antiproliferative activity against human A549 cells incubated for 72 hrs by Sulforhodamine B assay; assay type: functional, cell-based; details: A549, 72 h
[6] = Antiproliferative activity against human U87-MG cells incubated for 72 hrs by Sulforhodamine B assay; assay type: functional, cell-based; details: U-87 MG
[7] = Inhibition of PAFR in New Zealand rabbit platelets assessed as reduction in PAF-induced platelet aggregation measured within 5 mins by aggregometry analysis; assay type: tissue-based; details: Oryctolagus cuniculus
P388 = test: Antiproliferative activity against mouse P388 cells; assay type: functional, cell-based
MDA-MB-231 [8] = test: Cytotoxicity against human MDA-MB-231 cells incubated for 48 hrs by MTT assay; assay type: functional, cell-based; details: MDA-MB-231, 48 h
HepG2 = test: Cytotoxicity against human HepG2 cells incubated for 48 hrs by MTT assay; assay type: functional, cell-based; details: HepG2, 48 h
AGS = test: Cytotoxicity against human AGS cells incubated for 48 hrs by MTT assay; assay type: functional, cell-based
HeLa = test: Cytotoxicity against human HeLa cells incubated for 48 hrs by MTT assay; assay type: functional, cell-based
PANC-1 [9] = test: Cytotoxicity against human Panc-1 cells incubated for 48 hrs by MTT assay; assay type: functional, cell-based; details: PANC-1, 48 h
WM 266-4 = test: Cytotoxicity against human WM 266-4 cells incubated for 72 hrs by ATPlite assay; assay type: functional, cell-based; details: WM 266-4, 72 h
HCT-116 [10] = test: Cytotoxicity against human HCT116 cells incubated for 72 hrs by ATPlite assay; assay type: functional, cell-based; details: HCT-116, 72 h

COC(=O)[C@@]12OC[C@]34[C@H]([C@@H](O)[C@@H]1O)[C@@]1(C)C=C(O[C@@H]5O[C@H](CO)[C@@H](O)[C@H](O)[C@H]5O)C(=O)[C@@H](C)[C@@H]1C[C@H]3OC(=O)[C@H](OC(=O)/C=C(\C)C(C)C)[C@@H]24
IC50 (PANC-1 [1]): > 10 µM
IC50 (SW1990): > 10 µM

COC(=O)[C@@]12OC[C@]34[C@H]([C@@H](O)[C@@H]1O)[C@@]1(C)C=C(O[C@@H]5O[C@H](CO)[C@@H](O)[C@H](O)[C@H]5O)C(=O)[C@@H](C)[C@@H]1C[C@H]3OC(=O)[C@H](OC(=O)CC(C)C)[C@@H]24
IC50 (MCF7 [2]): > 50 µM
IC50 (PANC-1 [1]): > 100 µM
IC50 (SW1990): > 100 µM
IC50 (MDA-MB-231 [3]): > 50 µM

COC(=O)[C@@]12OC[C@]34[C@H]([C@@H](O)[C@@H]1O)[C@@]1(C)CC(=O)C(O)=C(C)[C@@H]1C[C@H]3OC(=O)[C@H](OC(=O)/C=C(\C)C(C)(C)O)[C@@H]24
IC50 (HCT-116 [4]): 0.25 µM

COC(=O)[C@@]12OC[C@]34[C@H]([C@@H](O)[C@@H]1O)[C@@]1(C)CC(=O)C(O)=C(C)[C@@H]1C[C@H]3OC(=O)[C@H](OC(=O)/C=C(\C)C(C)(C)OC(C)=O)[C@@H]24
IC50 (MCF7 [2]): 0.063 µM
IC50 (HCT-116 [4]): 0.05 µM
IC50 (MDA-MB-231 [3]): 0.088 µM

CC(=O)O[C@H]1CC(=O)OC(C)(C)[C@@H]2CC(=O)[C@]3(C)[C@H](CC[C@@]4(C)[C@H](c5ccoc5)OC(=O)[C@H]5O[C@]543)[C@@]12C
IC50 (MCF7 [5]): 0.097 µM
IC50 (MDA-MB-435): 0.78 µM

C[C@H](CO[C@@H]1O[C@H](CO)[C@@H](O)[C@H](O)[C@H]1O)[C@H]1OC(=O)C=C2[C@@]13O[C@@H]3[C@H]1OC(=O)[C@@]3(C)[C@@H](O)CC[C@@]2(C)[C@@H]13
IC50 (A-431): > 50 µM
IC50 (A549): > 50 µM
IC50 [6]: > 50 µM

Cc1ccccc1Cn1cc(CO[C@H]2C(=O)O[C@H]3O[C@]45C(=O)O[C@@H]6[C@H](O)[C@@H](C(C)(C)C)[C@@]32[C@@]64[C@@H](O)[C@@H]2OC(=O)[C@@H](C)[C@@]25O)nn1
IC50 [7]: 0.038 µM

CC(=O)O[C@@H]1C[C@H](O)[C@@]23COC(O)[C@]1(C)[C@@H]2C[C@@H](O)[C@@]1(C)[C@@H]2C(=O)C[C@@H](c4ccoc4)[C@]2(C)CC(=O)[C@@H]13 (stereo not given in full)
IC50 (P388): 58 µM

C[C@H](CO)[C@H]1OC(=O)C=C2[C@@]13O[C@@H]3[C@H]1OC(=O)[C@@]3(C)[C@@H](O)CC[C@@]2(C)[C@@H]13
IC50 (A-431): 4.6 µM
IC50 (A549): 1.1 µM
IC50 [6]: 4 µM

C[C@@H](O)[C@H]1OC(=O)C=C2[C@]3(C)[C@H]4[C@H](OC(=O)[C@@]4(C)[C@@H](O)[C@H]4O[C@H]43)[C@H]3O[C@@]231
IC50 (MDA-MB-231 [8]): 3 µM
IC50 (HepG2): 11 µM
IC50 (AGS): 1.3 µM
IC50 (HeLa): 1.8 µM
IC50 (PANC-1 [9]): 16 µM

C[C@@]12C3=CC(=O)O[C@H]([C@H](O)CO)[C@]34O[C@@H]4[C@H]3OC(=O)[C@](C)([C@H]31)[C@@H](O)[C@H]1O[C@H]12
IC50 (MDA-MB-231 [8]): > 40 µM
IC50 (HepG2): > 40 µM
IC50 (AGS): > 40 µM
IC50 (HeLa): > 40 µM
IC50 (PANC-1 [9]): > 40 µM

CC1(C)O[C@H]2CC(=O)OC[C@@]23[C@H]1CC(=O)[C@@]1(C)C2=CC(=O)O[C@@H](c4ccoc4)[C@]2(C)CC[C@@H]13
IC50 (MCF7 [5]): 5.5 µM
IC50 (MDA-MB-435): 1.7 µM

Cc1ccccc1Cn1cc(CO[C@H]2C(=O)O[C@H]3O[C@]45C(=O)O[C@@H]6C[C@@H](C(C)(C)C)[C@@]32[C@@]64C[C@@H]2OC(=O)[C@@H](C)[C@@]25O)nn1
IC50 [7]: 0.071 µM

CC1(C)OC(=O)C[C@H](O)[C@]2(C)[C@H]3CC[C@@]4(C)[C@H](c5ccoc5)OC(=O)[C@H]5O[C@]54[C@]3(C)C(=O)C[C@@H]12
IC50 (MCF7 [5]): 0.01 µM
IC50 (MDA-MB-435): 0.15 µM

CC(C)[C@H]1OC(=O)C=C2C1=C[C@H]1OC(=O)[C@@]3(C)C[C@@H](O)C[C@@]2(C)[C@@H]13
IC50 (MDA-MB-231 [8]): 1.1 µM
IC50 (HepG2): 3.7 µM
IC50 (AGS): 0.37 µM
IC50 (HeLa): 0.9 µM
IC50 (PANC-1 [9]): 3.1 µM

CC(C)[C@H]1OC(=O)C=C2[C@@]13O[C@@H]3[C@H]1OC(=O)[C@@]3(C)C[C@@H](O)C[C@@]2(C)[C@@H]13
IC50 (A-431): 0.21 µM
IC50 (MDA-MB-231 [8]): > 40 µM
IC50 (HepG2): 3.1 µM
IC50 (A549): 0.57 µM
IC50 (AGS): 1.4 µM
IC50 (HeLa): 0.6 µM
IC50 [6]: 0.43 µM
IC50 (PANC-1 [9]): > 40 µM

CC(=O)O[C@@]1(C)COC2(C1)OC(=O)[C@H]([C@@H]1CC[C@]34C[C@]13C=C[C@@H]1[C@@]3(C)CC=C5C[C@@H](Cc6ccccc6)OC[C@]5(C)[C@@H]3[C@@H](O)C(=O)[C@]14C)[C@H]2O (stereo not given in full)
IC50 (WM 266-4): 0.078 µM
IC50 (HCT-116 [10]): 0.0099 µM
